One compound from patent US8232253B2, “Treatment of lung cancer” (Ramot at Tel-Aviv University Ltd., priority 2006, dated 2012) can be followed below.

Experiment [1] relates to human lung cancer cell lines A549, H23, HTB54, H-1299, HTB-58 (SK-MES-1). The experiment can be described thus: Growth inhibition of human lung cancer cell lines by direct cell counting. The experiment is classed as cell-based. Conditions: range over A549, H23, HTB54, H-1299, HTB-58 (SK-MES-1), read-out: IC50 of growth inhibition, depending on the cell line. The procedure:
FTS was provided by Concordia Pharmaceuticals, Inc. (Ft. Lauderdale, Fla.). All cell lines were obtained from American Type Culture Collection (“ATCC”) (Manassas, Va.). A549 cells, non-small-cell lung carcinoma (CCL, ATCC) cells, were cultured in Kaighn's modification of Ham's F-12 medium containing 1.5 g/l sodium bicarbonate, 10% fetal calf serum (FCS), 100 U/ml penicillin, and 100 μg/ml streptomycin. HTB54 lung carcinoma cells were cultured in McCoy's 5A medium with 10% FCS, 100 U/ml penicillin, and 10 μg/ml streptomycin. HTB-58 (SK-MES-1, ATCC), a human lung squamous cell carcinoma cell line, was cultured in Eagle's minimum essential medium with 2 mM L-glutamine and Earle's BSS, 1.5 g/l sodium bicarbonate, 0.1 mM non-essential amino acids, 1 mM sodium pyruvate, 10% FCS, 100 U/ml penicillin, and 100 μg/ml streptomycin. […] Cells were treated with the indicated concentrations of FTS (Concordia Pharmaceuticals, Sunrise Fla.) or with 0.1% Me2SO4 (DMSO) (vehicle) 24 h after plating and were counted 5 days later. Dead cells were counted after addition of Hoechst 33258 dye (Sigma-Aldrich, St. Louis, Mo.); 1 μg/ml) to vehicle-treated control cultures or to cultures treated for 24 or 48 h with 75 μM FTS. Fluorescence images were collected 5 min after the dye was added. […]

In experiment [2] the test system is A549 cells. The experiment can be described thus: BrdU incorporation into DNA. The format is cell-based. Conditions: Homo sapiens, 75 μM FTS, 48 h, read-out: inhibition of incorporation of BrdU into DNA relative to vehicle-treated control. The procedure:
A549 cells were plated on glass cover slips (1.2×10^5 cells/well in 6-well plates) and incubated for 24 h in medium containing 5% FCS. The cells were then incubated for 24 h with or without 75 μM FTS and then for 24 h with 5-bromo-2-deoxyuridine (BrdU) (Zymed BrdU labeling kit, 1:100 dilution). Cells were fixed with 4% paraformaldehyde, permeabilized with 0.2% Triton X-100 (BDH, Poole, UK), washed with PBS, blocked with TBS Tween (TBST; 50 mM Tris, pH 7.4, 100 mM NaCl, 0.1% Tween 20) containing 1% bovine serum albumin (BSA), treated sequentially with 2 N HCl and 0.1 M sodium borate pH 8.5, and then blocked with goat γ-globulin and washed with TBST-BSA (described above). The cells were then labeled successively with mouse anti-BrdU antibody (Ab) (Zymed kit; 1:50 dilution), biotinylated rabbit anti mouse IgG (5 μg/ml), and Cy3-streptavidin (1.5 μg/ml). Cells with BrdU-stained nuclei were counted under a fluorescence microscope.
To investigate the effect of FTS on lung cancer cell proliferation, we first incubated A549 cells that harbor the activated K-ras gene mutated at codon 12. A549 cells are commonly used as a model for drug screening. […] The number of cells in the FTS-treated cultures was determined by direct counting of A549 cells grown for 6 days in the presence of FTS and was expressed as a percentage of the number recorded in the controls. […]

In the case of `CC(C)=CCC/C(C)=C/CC/C(C)=C/CSc1ccccc1C(=O)O` [FTS, S-farnesylthiosalicylic acid], the IC50 in experiment [1] lay in the range of 30 to 75 µM. Also, the inhibition at 75 µM in experiment [2] stood at 56.7 ± 17.4%.

For orientation: IC50 means the concentration that inhibits the measured activity by half.
